Test results: patent US4368200A, “Heterocyclic derivatives of (4-phenyl-piperazine-1-yl-aryloxymethyl-1,3-dioxolan-2-yl)-methyl-1H-imi dazoles and 1H-1,2,4-triazoles” (Janssen Pharmaceutica N.V., priority 1981, dated 1983)

Test system: Candida albicans
Test: Experiment A: activity against vaginal candidosis in rats
Format: in vivo, Female Wistar rats
Settings: po, 336 h, orally once a day for two days starting from the day of infection, active at the 14th day after infection, read-out: Vaginal candidosis in rats: lowest effective dose in mg/kg orally
Protocol: Female Wistar rats of ±100 g body weight are used. They are ovariectomized and hysterectomized and after three weeks of recovery, 100 μg of oestradiol undecylate in sesame oil is given subcutaneously once a week for 3 consecutive weeks. The thus induced pseudo-oestrus is controlled by microscopic examination of vaginal smears. Food and water are left available ad libitum. The rats are infected intravaginally with 8.10^5 cells of Candida albicans, grown on Sabouraud broth for 48 hours at 37° C. and diluted with saline. The data of infection varies from day +25 to day +32 after surgical intervention, depending on the appearance of signs of induced pseudo-oestrus. The drugs under investigation are administered orally once a day for two days starting from the day of infection. For each experiment there are placebo treated controls. The results are assessed by taking vaginal smears with sterile swabs on several days after the infection. The swabs are put into Sabouraud broth in petri-dishes and incubated for 48 hours at 37° C. If no growth of Candida albicans occurs, i.e., when the animals are negative at the end of the experiment, this is due to drug administration because it never happens in placebo-treated controls. The table below gives the lowest oral dose of the drug under investigation which is found active at the 14th day after infection.

| SMILES | minimal effective dose [mg/kg] |
| --- | --- |
| Cc1nn(C)c(=O)n1-c1ccc(N2CCN(c3ccc(OC[C@H]4CO[C@](Cn5cncn5)(c5ccc(Cl)cc5Cl)O4)cc3)CC2)cc1 (relative stereo) | ≤ 0.63 |
| Clc1ccc([C@@]2(Cn3cncn3)OC[C@H](COc3ccc(N4CCN(c5ccc(-n6ccnc6)cc5)CC4)cc3)O2)c(Cl)c1 (relative stereo) | 1.25 |
| CSc1nc(C)n(-c2ccc(N3CCN(c4ccc(OC[C@H]5CO[C@](Cn6cncn6)(c6ccc(Cl)cc6Cl)O5)cc4)CC3)cc2)n1 (relative stereo) | ≤ 0.63 |
| CCn1ncn(-c2ccc(N3CCN(c4ccc(OC[C@H]5CO[C@](Cn6ccnc6)(c6ccc(Cl)cc6Cl)O5)cc4)CC3)cc2)c1=O (relative stereo) | 1.25 |
| Cn1ncn(-c2ccc(N3CCN(c4ccc(OC[C@H]5CO[C@](Cn6ccnc6)(c6ccc(Cl)cc6Cl)O5)cc4)CC3)cc2)c1=O (relative stereo) | 1 |
| Clc1ccc([C@@]2(Cn3ccnc3)OC[C@H](COc3ccc(N4CCN(c5ccc(-n6cccn6)cc5)CC4)cc3)O2)c(Cl)c1 (relative stereo) | 2.5 |
| Clc1ccc([C@@]2(Cn3ccnc3)OC[C@H](COc3ccc(N4CCN(c5ccc(-n6ccnc6)cc5)CC4)cc3)O2)c(Cl)c1 (relative stereo) | 1.25 |
| CSc1nncn1-c1ccc(N2CCN(c3ccc(OC[C@H]4CO[C@](Cn5cncn5)(c5ccc(Cl)cc5Cl)O4)cc3)CC2)cc1 (relative stereo) | 2.5 |
| CSc1nnc(C)n1-c1ccc(N2CCN(c3ccc(OC[C@H]4CO[C@](Cn5cncn5)(c5ccc(Cl)cc5Cl)O4)cc3)CC2)cc1 (relative stereo) | 2.5 |
| Cc1nn(C)c(=O)n1-c1ccc(N2CCN(c3ccc(OC[C@H]4CO[C@](Cn5ccnc5)(c5ccc(Cl)cc5Cl)O4)cc3)CC2)cc1 (relative stereo) | 0.63 |
| CSc1ncn(-c2ccc(N3CCN(c4ccc(OC[C@H]5CO[C@](Cn6cncn6)(c6ccc(Cl)cc6Cl)O5)cc4)CC3)cc2)n1 (relative stereo) | 1.25 |
| CCn1nc(C)n(-c2ccc(N3CCN(c4ccc(OC[C@H]5CO[C@](Cn6ccnc6)(c6ccc(Cl)cc6Cl)O5)cc4)CC3)cc2)c1=O (relative stereo) | 1.25 |
| Cc1ncnn1-c1ccc(N2CCN(c3ccc(OC[C@H]4CO[C@](Cn5cncn5)(c5ccc(Cl)cc5Cl)O4)cc3)CC2)cc1 (relative stereo) | 0.63 |
| Cn1ncn(-c2ccc(N3CCN(c4ccc(OC[C@H]5CO[C@](Cn6cncn6)(c6ccc(Cl)cc6Cl)O5)cc4)CC3)cc2)c1=O (relative stereo) | ≥ 0.63 |
| Clc1ccc([C@@]2(Cn3cncn3)OC[C@H](COc3ccc(N4CCN(c5ccc(-n6cccn6)cc5)CC4)cc3)O2)c(Cl)c1 (relative stereo) | 2.5 |
| Clc1ccc([C@@]2(Cn3cncn3)OC[C@H](COc3ccc(N4CCN(c5ccc(-n6cnnn6)cc5)CC4)cc3)O2)c(Cl)c1 (relative stereo) | < 2.5 |
| Clc1ccc([C@@]2(Cn3ccnc3)OC[C@H](COc3ccc(N4CCN(c5ccc(-n6cncn6)cc5)CC4)cc3)O2)c(Cl)c1 (relative stereo) | 0.63 |
| CCn1ncn(-c2ccc(N3CCN(c4ccc(OC[C@H]5CO[C@](Cn6cncn6)(c6ccc(Cl)cc6Cl)O5)cc4)CC3)cc2)c1=O (relative stereo) | ≥ 0.16 |
| CCCn1nc(C)n(-c2ccc(N3CCN(c4ccc(OC[C@H]5CO[C@](Cn6cncn6)(c6ccc(Cl)cc6Cl)O5)cc4)CC3)cc2)c1=O (relative stereo) | 0.5 |
| Clc1ccc([C@@]2(Cn3cncn3)OC[C@H](COc3ccc(N4CCN(c5ccc(-n6cncn6)cc5)CC4)cc3)O2)c(Cl)c1 (relative stereo) | 0.63 |
| CCn1nc(C)n(-c2ccc(N3CCN(c4ccc(OC[C@H]5CO[C@](Cn6cncn6)(c6ccc(Cl)cc6Cl)O5)cc4)CC3)cc2)c1=O (relative stereo) | < 0.63 |
| CCCn1nc(C)n(-c2ccc(N3CCN(c4ccc(OC[C@H]5CO[C@](Cn6ccnc6)(c6ccc(Cl)cc6Cl)O5)cc4)CC3)cc2)c1=O (relative stereo) | 0.63 |
| CSc1nc(C)n(-c2ccc(N3CCN(c4ccc(OC[C@H]5CO[C@](Cn6ccnc6)(c6ccc(Cl)cc6Cl)O5)cc4)CC3)cc2)n1 (relative stereo) | 2.5 |
| CSc1ncn(-c2ccc(N3CCN(c4ccc(OC[C@H]5CO[C@](Cn6ccnc6)(c6ccc(Cl)cc6Cl)O5)cc4)CC3)cc2)n1 (relative stereo) | 2.5 |
